Reference: PMC11570809, “Novel N-phenyl-2-(aniline) benzamide hydrochloride salt development for colon cancer therapy” (Frontiers in Pharmacology, 2024)
“And” between values parts separate entries of the source, which are not always exact repeats. Equal entries are not always repeated. Structures can show the parent of a compound that is named as a salt. Where two headings read alike, the source gives them in different places.

Tests used:
HT29 xenograft = assay: HT29 nude xenograft model; type: in vivo, BALB/c nude mice; settings: 15 mg/kg once a day p.o., 13 days
Procedure: HT29 cells in the logarithmic growth phase were digested to a cell density of 8 × 10^6/mL, and 100 μL suspension of HT29 was injected subcutaneously in the right axilla of nude mice. The dose selection is based on previously described ([Xiaoling Hu et al., 2022]). When the average tumor volume reached about 300 mm^3, they were randomly divided into 3 groups: N53·HCl (15 mg/kg once a day, p.o.), N53 (15 mg/kg once a day, p.o.), control group. 15 mg/kg N53 and N53·HCl dissolved in normal saline containing 2.5% polyoxyethylene castor oil and 2.5% DMSO were administrated by oral medications, while the Control group was given an equal volume of blank solvent. The tumor volume was measured with a vernier caliper every other days and calculated the tumor volume according to Equation 1. After 13 days of treatment, the mice were sacrificed, the tumors were removed, the tumor weight was weighed, and the tumor growth inhibition rate was calculated. The calculation formula of tumor growth inhibition rate (TGI%) was calculated using Equation 2. The corresponding equations were as follows: Tumor volume mm^3=W^2×L/2 (1) TGI%=1−T−T0 / C−C0×100% (2)
In equations, W and L represent the width and length of the tumor respectively, T and C represent the average volume of the experiment group and control group at the end of the experiment. T0 and C0 represent […].

[1] = Oral pharmacokinetics study; type: in vivo, SD rats; settings: for T1/2 / Tmax: n = 3
Procedure: Six 250–280 g male SD rats, which are 8-week-old, were randomly divided into 2 groups (n = 3). The dose selection is based on previously described ([Xiaoling Hu et al., 2022]). 100 mg/kg N53 and N53·HCl dissolved in normal saline containing 2.5% polyoxyethylene castor oil and 2.5% DMSO was administrated by oral medications. The first group was given 100 mg/kg of N53 by intragastric administration, and the second group was given 100 mg/kg of N53·HCl by intragastric administration. For intragastric administration, blood samples were collected from the orbits of the rats in heparin sodium tubes at 0, 5, 15, 30 min, 1, 2, 4, 6, 8, 12, and 24 h after dosing; The above blood samples were centrifuged (2,500 rpm, 6 min, 4°C) to plasma, and stored at −80°C to be analyzed by LC-MS/MS. Firstly, 5 times methanol was added to each serum sample and mixed well. After centrifugation at 1,600 rpm for 10 min at 4°C, the samples were filtered through a 0.22 μm filter for analysis. The HPLC analysis was carried out on an ODS-C18 column (4.6 mm × 50 mm, 3 μm). The HPLC mobile phases consisted of water (0.1% formic acid) (A) and 95% acetonitrile (including 0.1% formic acid) (B), separated by gradient chromatography at 0.4 mL/min. Chromatographic conditions: mobile phase: 0–0.5 min, acetonitrile: H2O = 10:90; 0.5–0.6 min acetonitrile: H2O = 100:0, 0.6–2.4 min, acetonitrile: H2O = 100:0, 2.4–2.5 min acetonitrile: H2O = 10:90; wavelength: 254 nm; column temperature: 25°C. The column eluate was directly introduced into ES-API. The MS/MS instrument was conducted using the electrospray ionization (ESI) source with a positive ion detection mode. The analytes (N53·HCl) and IS (Propranolol) were all detected by multiple reactions monitoring (MRM) scan mode of transitions from precursor ions to product ions at m/z 435.2→192.1 for N53·HCl (retention time: 1.54 min), m/z 260.0→116.0 for IS (retention time: 1.54 min). The optimized instrument parameters are as follows: declustering potentials (DP) at 51 V for N53·HCl, 78 V for IS; entrance potentials (EP) at 8V; collision energies (CE) at 34 V for N53·HCl, 25 V for IS; collision cell exit potentials (CXP) at 7 V; curtain gas (CUR) at a pressure of 10 psi; turbo spray voltage at 5,500 V. Data acquisition of LC-MS/MS was performed with AnalystTM 1.5 software package (Applied Biosystems, MA, United States). The pharmacokinetic parameters for N53 and N53·HCl were calculated by using the non-compartment method (statistical moment) in DAS 2.0 software (Pharmacokinetics Institute of China).

RKO = assay: MTT anti-proliferation assay, RKO; type: cell-based, human; settings: 72 h, read-out: IC50 ± SD RKO
Procedure: The anti-proliferation activities of synthesized compounds to colon cancer cell lines were measured by the MTT (3-[4,5-dimethyl-2-thiazolyl]-2,5-diphenyl-2H-tet razolium bromide) assay. First, the cell suspension was prepared by trypsin and the corresponding medium, cells were diluted to 5 × 10^5 cells/mL, and 96-well plates were added 200 μL per well. The plates were maintained at 37°C in a humidified atmosphere containing 5% CO2 overnight. Then compounds at gradient concentrations were added to cells in the logarithmic phase to make the final concentration at 0.5, 1, 2, 4, 8, 16, and 32 μM. The cells were treated with tested compounds for 72 h, and the growth curve assay was tested in 24 h. When the time was up, 20 μL of MTT solution (5 mg/mL in PBS) was added into each well to incubate for 4 h at 37°C. Then the supernatant liquid was removed, 150 μL DMSO was added into every well to dissolve formazan crystals and read the absorbance at 570 nm by Spark microplate spectrophotometer (Tecan, Swiss). The IC50 values were analyzed by IBM SPASS Statistics 25.0 software. The data are all derived from three parallel experiments (n = 3) and expressed as mean ± SD.

[2] = Thermodynamic solubility in water (HPLC); type: physicochemical; settings: for Solubility, equivalent molar concentration: water
Procedure: The thermodynamic solubility of N53·HCl in water was determined by high-performance liquid chromatography (Waterage, Alliance HPLC E2695, United States). The HPLC mobile phases were water (0.1% formic acid) and methanol separated by gradient chromatography at 0.5 mL/min. The chromatographic conditions were followed. Mobile phase: methanol: H2O = 10:90; 15 min; wavelength: 254 nm; temperature: 25°C. N53 and N53·HCl were dissolved in methanol to form a gradient concentration standard solution (0.32, 1.6, 8, 40, 200 and 1,000 μg/mL). The standard solutions were scanned at 254 nm and the absorption area was recorded against the concentration curve. Saturated solutions of the compounds were prepared by magnetic stirring at 37°C for 4 h in deionized water in small volumes and the solid compounds were removed using Millipore 0.45 μm filters. The saturated solution was then scanned at 254 nm. The thermodynamic solubility in water was calculated from the absorption area and curve.

[3] = 100 mg/kg p.o., n = 3, mean ± SD

Compound | Body weight versus control group (HT29 xenograft) | Tumor inhibition rate (TGI) (HT29 xenograft) | Cmax (peak plasma concentration) ([1]; 100 mg/kg p.o.) | T1/2 ([1]; 100 mg/kg p.o.) | Tmax ([1]; 100 mg/kg p.o.) | AUC0(-∞) [1, 3] | CLz [1, 3] | Cmax [1, 3] | Vd/F ([1]; male, SD, rat, plasma, po, 100 mg/kg, 100 mg/kg p.o., n = 3, mean ± SD, read-out: Vz/F) | IC50 (RKO) | Solubility, equivalent molar concentration [2] | Vz/F [1, 3] | Tmax ([1]; male, SD, rat, plasma, po, 100 mg/kg, 100 mg/kg p.o., read-out: Tmax) | AUC0–∞ increase relative to N53 ([1]; oral) | Cmax increase relative to N53 ([1]; oral) | IC50 (RKO; Homo sapiens, RKO) | solubility at 4 h ([2]; deionized water, thermodynamic, 37°C, 4 h) | Water solubility ([2]; thermodynamic, deionized water, 37°C, 4 h)
Cc1c(Cl)cccc1Nc1ccccc1C(=O)Nc1ccc(N2CCN(C)CC2)cc1 [Compound N53, 2-((3-chloro-2-methylphenyl)amino)-N-(4-(4-methylp-iperazin-1-yl)phenyl)benzamide] | no significant difference in body weight | 34.7% | 333.7 µg/mL and 333 µg/mL | 10.78 h and 10.8 ± 0.7 h | 6.0 ± 2.0 h | 7200 ± 700 ng·h/mL | 232 ± 21.7 mL/min/kg | 330 ± 40 µg/mL | 217 ± 33.3 L/kg | 6.29 ± 0.54 µM | < 0.74 µM |  |  |  |  |  |  | 
Cc1c(Cl)cccc1Nc1ccccc1C(=O)Nc1ccc(N2CCN(C)CC2)cc1 [N53·HCl, 4-(4-(2-((3-chloro-2-methylphenyl)amino)ben-zamido)phenyl)-1-methylpiperazin-1-ium] | no significant difference in body weight | 53.7% | 680.0 µg/mL | 22.3 ± 9.9 h | 6.7 ± 4.6 h | 21200 ± 8000 ng·h/mL | 85 ± 26.7 mL/min/kg | 680 ± 180 µg/mL |  |  | 1150 µM | 149.7 ± 11.6 L/kg | 6.67 h | 3 fold | 2 fold | 7.99 ± 0.85 µM | 540 µg/mL | 540 µg/mL
